Data published in patent USRE34284E, “Method for assaying proteolytic enzymes” (bioMerieux Vitek, Inc., priority 1992, dated 1993).
“And” between values parts separate entries of the source, which are not always exact repeats. Equal values may be shown once. Read-outs that look alike come from different tables or passages of the source.

Columns and labels:
trypsin [1] = assay: Kinetic constants for trypsin-catalyzed hydrolysis of BOC-ARG-MBTH, continuous assay (Example 18); assay type: biochemical; settings: for kc (kinetic catalytic constant) / Km: tris buffer pH 7.8, 590 nm; for Km: read-out: Km (binding constant)
Description: Determination of the Kinetic Constants for the Trypsin Catalyzed Hydrolysis of N-(N-t-butoxycarbonyl)-L-Arginyl 3-methyl benzothiazolinone hydrazone (continuous assay)).
In a one cm. cuvette were mixed 3.0 mL of 0.02M tris buffer, pH 7.8, containing 0.02M 3-dimethylamino benzoic acid (DMAB) 0.1 mL of 0.065M potassium ferricyanide, and 0.1 mL of substrate (BOC-ARG-MBTH). The reaction was initiated by the addition of 1 0.1 mL of trypsin (2.33×10^-4 M in 0.1M pyrophosphate buffer, pH 8.3). Eight concentrations of substrate, from 9.98×10^-4 M to 7.8×10^-6 M, were assayed in triplicate. The increase in absorption at 590 nm was monitored continuously and the initial rates were determined. Under the conditions of the assay, a molar absorptivity of 57,000 was used to determine the concentration of the chromogen (MBTH-DMAB) produced by the hydrolysis of substrate. Table I contains the date used to determine the binding and kinetic constants (Km, kc).

trypsin [2] = assay: Continuous assay for trypsin, hydrolysis of Z-GLY-PRO-ARG-MBTH (Example 16); assay type: biochemical; settings: 1 μg trypsin, 0.14M Tris pH 7.8, 0.0131M DMAB, 0.002M potassium ferricyanide, 3% dimethylformamide; substrate 1.74×10^-3, 5.8×10^-4 and 3.9×10^-4 M in triplicate; 590 nm, 5 minutes
Description: Saturation kinetics for N-(N-benzyloxycarbonyl)glycyl-L-prolyl-L-arginyl 3-methyl-2-benzothiazolinone hydrazone with trypsin).
A continuous assay for trypsin was performed, i.e., the oxidizing and coupling reagents for color development were included with the substrate in the reaction mixture so that color development may be monitored on a continuous basis with time. In this example the dye precursor is developed to a dye without destroying the enzymatic activity of the enzyme. The reaction was initiated by the addition of 0.1 mL of enzyme (10 μg/mL) to 0.9 mL of buffer solution containing substrate (Z-GLY-PRO-ARG-MBTH) and color developing reagents. The final concentrations in the cuvette were 1 μg trypsin +0.14M Tris buffer, pH 7.8 +0.0131M 3-dimethylamino benzoic acid (DMAB) +0.002M potassium ferricyanide +3% dimethylformamide +substrate. Substrate concentrations of 1.74×10^-3 M, 5.8×10^-4 M and 3.9×10^-4 M were assayed in triplicate. The increases in absorbance at 590 nm were monitored continuously for 5 minutes and the initial rates determined. Using the molar absorptivity of 57,000 for the chromogen produced (MBTH-DMAB), the average rate of hydrolysis was calculated to be 4.43±0.1×10^-6 mol min^-1.

[3] = Woolf-Augustinssen-Hofstee method

Cn1c(=NNC(=O)[C@H](CCCNC(=N)N)NC(=O)OC(C)(C)C)sc2ccccc21 [BOC-ARG-MBTH, N-(N-t-butoxycarbonyl)-L-Arginyl 3-methyl benzothiazolinone hydrazone]
I/V (trypsin [1]; I/S 100 M^-1): 0.000565 min/M and 0.000528 min/M and 0.000625 min/M | V/S (trypsin [1]; I/S 100 M^-1): 0.00177 min⁻¹ and 0.0019 min⁻¹ and 0.0016 min⁻¹ | I/V (trypsin [1]; I/S 200 M^-1): 0.000699 min/M and 0.000742 min/M | V/S (trypsin [1]; I/S 200 M^-1): 0.00287 min⁻¹ and 0.0027 min⁻¹ | I/V (trypsin [1]; I/S 401 M^-1): 0.000766 min/M and 0.00088 min/M and 0.000819 min/M | V/S (trypsin [1]; I/S 401 M^-1): 0.00523 min⁻¹ and 0.00456 min⁻¹ and 0.00489 min⁻¹ | I/V (trypsin [1]; I/S 802 M^-1): 0.00108 min/M and 0.001188 min/M and 0.001033 min/M | V/S (trypsin [1]; I/S 802 M^-1): 0.00743 min⁻¹ and 0.00675 min⁻¹ and 0.00776 min⁻¹ | I/V (trypsin [1]; I/S 1603 M^-1): 0.001697 min/M and 0.001607 min/M and 0.001827 min/M | V/S (trypsin [1]; I/S 1603 M^-1): 0.00945 min⁻¹ and 0.00877 min⁻¹ | I/V (trypsin [1]; I/S 2305 M^-1): 0.002969 min/M and 0.003393 min/M | V/S (trypsin [1]; I/S 2305 M^-1): 0.01808 min⁻¹ and 0.0108 min⁻¹ and 0.00945 min⁻¹ | I/V (trypsin [1]; I/S 6413 M^-1): 0.005056 min/M and 0.00528 min/M | V/S (trypsin [1]; I/S 6413 M^-1): 0.01268 min⁻¹ and 0.01215 min⁻¹ | I/V (trypsin [1]; I/S 12826 M^-1): 0.009901 min/M and 0.009506 min/M | V/S (trypsin [1]; I/S 12826 M^-1): 0.01295 min⁻¹ and 0.01349 min⁻¹ | kc (kinetic catalytic constant) (trypsin [1]; Lineweaver-Burk plot): 0.0436 s⁻¹ | Km (trypsin [1]; Lineweaver-Burk plot): 1410 µM | kc (kinetic catalytic constant) (trypsin [1]; [3]): 0.0428 s⁻¹ | Km (trypsin [1]; [3]): 1290 µM

Cn1c(=NNC(=O)[C@H](CCCNC(=N)N)NC(=O)[C@@H]2CCCN2C(=O)CNC(=O)OCc2ccccc2)sc2ccccc21 [Z-GLY-PRO-ARG-MBTH, N-(N-benzyloxycarbonyl)glycyl-L-prolyl-L-arginyl 3-methyl-2-benzothiazolinone hydrazone]
average rate of hydrolysis (trypsin [2]): 4.43±0.1×10^-6 mol min^-1
